Source: patent US12036215B2, “Antitumor agent and method for tumor therapy” (TAIHO PHARMACEUTICAL CO., LTD., priority 2018, dated 2024)

Assays:
tumor = settings: rats, 24 hours later MK-5108 orally twice per day for 2 days; cited from earlier work
[1] = test system: small-cell lung cancer (SCLC); settings: paclitaxel once per week; MLN8237 twice per day for 3 days, 4 days off; cited from earlier work
[2] = Phase 1 clinical dose escalation trial with paclitaxel: safety, dose-limiting toxicity; assay type: in vivo, human
Protocol: (§1) Paclitaxel and compound I in the form of hydrochloride were administered to cancer patients and evaluated for safety and efficacy. This study was conducted targeting solid cancer patients for whom a standard treatment is not effective, or a treatment is not present. Cancers found to affect the patients included the carcinoma shown in FIG. 3 (urothelial cancer, adrenal cancer, pancreatic cancer, colon cancer, cervical cancer, bile duct cancer, hepatocellular carcinoma, prostate cancer, head and neck cancer, ovarian cancer, gallbladder cancer, non-small cell lung cancer, parotid gland cancer, breast cancer, and fallopian tube cancer). This study also corresponds to a phase 1 clinical dose escalation trial for mainly evaluating safety and determining a recommended dose (RD), that can be administered safely without a concerned side effect in a phase 1 clinical expansion cohort test to be performed on a carcinoma basis.
(§2) A weekly administration regimen was adopted to paclitaxel, in which paclitaxel was administered once per week for 3 weeks, followed by cessation of the drug for 1 week. This administration method is a standard paclitaxel administration regimen and is widely used in clinical practice. On the other hand, the compound I was administered twice per day for 2 or 3 or 4 days from the same day as paclitaxel administration or 1 day after paclitaxel administration; this regimen was performed for 3 weeks together with the weekly paclitaxel administration; and week 4 was set to cessation of the compound I, in accordance with the cessation of paclitaxel. Each administration schedule (dose level) was evaluated from results of administration to 2 to 7 patients.

[3] = in vivo; cited from earlier work
Aurora A = target: T1, Aurora A (Homo sapiens, UniProt O14965); settings: cited from earlier work
T1 sequence (O14965 1-403): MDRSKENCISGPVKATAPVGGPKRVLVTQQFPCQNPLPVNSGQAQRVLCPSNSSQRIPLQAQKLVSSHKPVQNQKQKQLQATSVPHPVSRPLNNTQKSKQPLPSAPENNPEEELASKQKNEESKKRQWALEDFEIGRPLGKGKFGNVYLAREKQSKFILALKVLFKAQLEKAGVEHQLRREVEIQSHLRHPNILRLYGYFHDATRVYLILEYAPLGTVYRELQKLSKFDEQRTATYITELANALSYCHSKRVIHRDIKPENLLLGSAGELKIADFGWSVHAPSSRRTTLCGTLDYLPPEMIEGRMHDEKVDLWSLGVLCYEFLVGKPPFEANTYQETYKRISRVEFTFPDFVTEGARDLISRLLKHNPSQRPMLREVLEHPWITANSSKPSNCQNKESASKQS

solid cancer = test: Phase 1 clinical dose escalation trial with paclitaxel: tumor reduction effect (RECIST); assay type: in vivo, human; settings: for cases in which a tumor reduction effect was observed: equal dose per day
Protocol: as §1
In addition to the evaluation of safety, a therapeutic effect on tumor was also evaluated, if possible. The therapeutic effect on tumor was determined as a tumor reduction effect by comprehensive evaluation of target lesions (lesions equal to or larger than a measurable size according to a slice width by CT, etc.) and non-target lesions (all lesions other than the target lesions) with reference to the RECIST evaluation method (Journal of the National Cancer Institute, 2000, Vol 92, No. 3, 205-216J). The dose of the compound I is a weight based on free form.
In this study, PR (partial response) refers to 30% or more decrease in the sum of the major axis of target lesions, compared to that before administration. PD (progressive disease) refers to 20% or more relative increase in the sum of the major axis of target lesions, compared to the smallest sum of the major axis recorded after the start of the study, 5 mm or more absolute increase in the sum of the major axis, or apparent exacerbation of existing non-target lesions or a new lesion. SD (stable disease) refers to insufficient tumor reduction to qualify for PR and insufficient increase to qualify for PD, without progression and exacerbation of tumor, compared to the smallest sum of the major axis recorded after the start of the study.
as §2

[4] = test system: Human-derived uterus cancer cell line HeLa-luc; test: Schedule study of combined use of compound I and paclitaxel in HeLa-luc grafted nude rats; assay type: in vivo; settings: group 1: paclitaxel 10 mg/kg i.v. on day 1 alone; 5 rats
Source text: Human-derived uterus cancer cell line HeLa-luc (PerkinElmer, Inc.) cells transfected with luciferase gene were subcutaneously grafted at 1×10^7 cells to the right abdomens of nude rats (lineage: F344/NJcl-rnu/rnu, female, distributor: CLEA Japan, Inc.). When the volume of the grafted tumor reached approximately 200 mm^3, the rats were divided into groups each consisting of 5 rats according to stratified randomization such that each group had almost the same tumor volume.
To group 1, paclitaxel (10 mg/kg) alone was intravenously administered on day 1. To groups 2 to 5, paclitaxel was administered and, on the next day, the hydrochloride of the compound I (30 mg/kg, based on free form) obtained in Reference Example 1 was orally administered twice per day for 1 day, 2 days, 3 days or 4 days (Sequential treatment; see FIG. 1). […]
The presence or absence of a therapeutic effect was determined by measuring the major axis and minor axis of tumor with time and calculating a tumor volume (TV), relative tumor volume (RTV) and T/C (%) value (average relative tumor volume ratio of the treatment group to the control group) on day 10 after initiation of administration, according to the following formulas. […]

## O=C(O)[C@]1(Cc2cccc(Nc3nccs3)n2)CC[C@@H](Oc2cccc(Cl)c2F)CC1 [MK-5108]
tumor
  effect on side effect of docetaxel: without exacerbating the side effect of docetaxel
  effect on tumor reduction effect of docetaxel: tumor reduction effect of docetaxel is enhanced

## COc1cc(Nc2ncc3c(n2)-c2ccc(Cl)cc2C(c2c(F)cccc2OC)=NC3)ccc1C(=O)O [alisertib]
[1]
  adverse events: serious adverse events such as neutropenia was found
  efficacy in combination with paclitaxel: effective for small-cell lung cancer

## Cc1cc(Nc2nc(CC3(C(=O)O)CCN(C(=O)c4cccc(Cl)c4Cl)CC3)ccc2F)n[nH]1 [compound I, 1-(2,3-dichlorobenzoyl)-4-[5-fluoro-6-(5-methyl-1H-pyrazol-3-ylamino)pyridin-2-yl]methyl-4-piperidinecarboxylic acid]
[2]; DL1: paclitaxel 90 mg/m^2/day weekly, compound I 25 mg/dose twice per day for 4 days from same day as paclitaxel, 3 weeks
  patients with dose-limiting toxicity (DLT): two out of three
[2]; DL1: paclitaxel 90 mg/m^2/day, compound I 25 mg/dose twice per day for 4 days
  tolerability determination of the dose level: exceed the maximum tolerable dose
[2]; DL2: paclitaxel 70 mg/m^2/day, compound I for 2 days
  tolerability determination of the dose level: tolerable
[2]; DL2: paclitaxel 70 mg/m^2/day, compound I for 2 days from 1 day after paclitaxel
  patients with dose-limiting toxicity (DLT): not observed in any of three cases
[2]; DL6: paclitaxel 80 mg/m^2/day, compound I 75 mg per dose twice per day for 3 days
  tolerability determination of the dose level: most suitable as the maximally tolerated dose
[2]; DL6: paclitaxel 80 mg/m^2/day, compound I 75 mg per dose twice per day for 3 days from day following paclitaxel
  patients with grade 3 or higher dose-limiting toxicity: not observed in any of seven cases
[2]; DL7: paclitaxel 80 mg/m^2/day, compound I 100 mg per dose twice per day for 3 days
  tolerability determination of the dose level: exceed the maximum tolerable dose
[2]; DL7: paclitaxel 80 mg/m^2/day, compound I 100 mg per dose twice per day for 3 days from day following paclitaxel
  patients with dose-limiting toxicity (DLT): two out of three
[2]; compound I 2 consecutive days, 75 mg per dose, total 300 mg per week, with paclitaxel
  tolerability: tolerable without the dose-limiting toxicity
[3]
  oral absorbability: excellent in oral absorbability
Aurora A
  Aurora A selective inhibitory activity: excellent
Solid cancer; 2 on 5 off schedule, 6 out of 12 patients, with paclitaxel
  patients in which a tumor reduction effect was observed: 50%
Solid cancer; 2 on 5 off schedule, one out of 12 cases, with paclitaxel
  cases that had PR: 8.3%
Solid cancer; 3 on 4 off schedule (dose levels 6 and 7), 3 out of 8 cases, with paclitaxel
  cases that manifested PR: 38%
Solid cancer; 3 on 4 off schedule, 7 out of 8 patients, with paclitaxel
  patients in which a tumor reduction effect was observed: 88%
Solid cancer; all dose levels, 22 evaluable cases, combination with paclitaxel
  number of patients with PR (partial response): 5
Solid cancer; 2 on 5 off (dose level 5), 1 out of 3 cases, with paclitaxel
  cases in which a tumor reduction effect was observed: 33%
Solid cancer; 3 on 4 off (dose level 6), 4 out of 5 cases, with paclitaxel
  cases in which a tumor reduction effect was observed: 80%

## CC(=O)O[C@H]1C(=O)[C@@]2(C)[C@H]([C@H](OC(=O)c3ccccc3)[C@]3(O)C[C@H](OC(=O)[C@H](O)[C@@H](NC(=O)c4ccccc4)c4ccccc4)C(C)=C1C3(C)C)[C@]1(OC(C)=O)CO[C@@H]1C[C@@H]2O [paclitaxel]
[4]
  number of CR (complete remission) cases: no CR cases were observed
